Measured values from patent US7816352B2, “Apoptosis inhibitors” (The Regents of The University of California, priority 2005, dated 2010).
Like-named read-outs stand apart in the source and are kept apart here.

Legend:
[1] = tested on: thymocytes; experiment: Cytoprotection of mouse thymocytes from dexamethasone-induced apoptosis (PI/DiOC6 flow cytometry); assay type: cell-based, C57Bl/6 mice; conditions: Thymocyte
Method: Thymocytes were harvested from young C57Bl/6 mice and cultured at 37° C. in 5% CO2 in RPMI 1640 containing 10% FBS, 1% Penicillin/Streptomycin (Gibco BRL, Rockville, Md.). Thymocytes were plated at a density of 10^7 cells/mL and pre-incubated with 5-10 μM of test compounds, 1, 2, 4, and 11 (from 10 mM
[drawing 8] stock in DMSO) for 30 minutes before induction of apoptosis. Apoptosis was induced with 5 μM dexamethasone or by exposure to 6 Gy gamma radiation. After 6 hours, cell apoptosis was assayed by propidium iodide (PI) and 3,3′ dihexyloxacarbocyanine iodide (DiOC6) staining. The cells were removed from the plate and incubated for 30 minutes in medium with 40 nM DiOC6 and 5 μg/mL PI and then analyzed by flow cytometry in a FACS caliber (Beckton-Dickinson, San Jose, Calif.). Viable cells had high DiOC6 (FL-1) and low PI (FL-3), whereas apoptotic cells had low DiOC6 (FL-1) and […]. To evaluate the IC50s the thymocytes were pre-exposed to graded concentrations of selected compounds for 30 min and then apoptosis was induced with 5 μM dexamethasone. After 6 hours the cells were harvested and stained as above. The results are illustrated in FIGS. 1 and 2 IC50 Determination
The concentration (IC50) of each compound that inhibited dexamethasone-induced cell death by 50% was determined by nonlinear regression fitting of the data to a one-site model. Pseudo Hill slopes were determined by nonlinear regression fit of the data to a sigmoidal dose-response equation (variable slope): % viability=minimum %/viability+(maximum−minimum % viability)/[1+10(log IC50−X)^n], where X is the logarithm of inhibitor concentration, and n is the pseudo Hill slope and the maximum and minimum % viability were experimentally determined after dexamethasone exposure and drug treatment. IC50 values and 95% confidence intervals (CI) were derived from the sigmoid fits to the percent control transformed data shown using GraphPad Prism version 4.0b for Macintosh (GraphPad Software, San Diego, Calif.).

[2] = tested on: cells; conditions: cells pre-incubated with compound, then exposed to γ-radiation; cited from earlier work
[3] = mice; cited from earlier work
[4] = 5 μM dexamethasone, 30 min pre-incubation, 6 hours, 95% CI in parentheses, read-out: EC50, in vitro cytoprotection activity
[5] = read-out: EC50, cytoprotective activity following in vitro dexamethasone treatment of mouse thymocytes

With CON=C(C[n+]1cccc2ccccc21)c1ccc(C)cc1 [Compound 4, 1-(2-Methoxyimino-2-p-tolyl-ethyl)-quinolinium bromide] the EC50 [1, 4] was 0.35 µM and the EC50 [1, 5] was 0.35 µM.
CON=C(C[n+]1ccccc1)c1ccc(N2CCCC2)cc1 [Compound 13, 1-[2-Methoxyimino-2-(4-pyrrolidin-1-yl-phenyl)-ethyl]-pyridinium bromide] gave an EC50 [1, 4] of 0.28 µM.
Cc1ccc(C(=O)C[n+]2ccccc2)cc1 [Compound 9, 1-(2-Oxo-2-p-tolyl-ethyl)-pyridinium bromide] gave an EC50 [1, 4] of over 10 µM.
With CON=C(C[n+]1ccccc1)c1ccc(C)cc1 [Compound 8, 1-(2-Methoxyimino-2-p-tolyl-ethyl)-pyridinium bromide] the EC50 [1, 4] was 5.1 µM.
Work on CON=C(C[n+]1cccc2ccccc21)c1ccc(N2CCCC2)cc1 [Compound 11, 1-[2-Methoxyimino-2-(4-pyrrolidin-1-yl-phenyl)-ethyl]-quinolinium bromide] yielded an EC50 [1, 4] of 0.013 µM.
In the case of CON=C(Cn1c(=O)ccc2ccccc21)c1ccc(N2CCCC2)cc1 [Compound 12, 1-[2-Methoxyimino-2-(4-pyrrolidin-1-yl-phenyl)-ethyl]-1H-quinolin-2-one], the EC50 [1, 4] is reported as over 10 µM.
For Cc1ccc(C(=O)Cn2c(=O)ccc3ccccc32)cc1 [Compound 7, 1-(2-Oxo-2-p-tolyl-ethyl)-1H-quinolin-2-one], the EC50 [1, 4] was over 10 µM.
Cc1ccc(C(=O)C[n+]2cccc3ccccc32)cc1 [Compound 5, 1-(2-Oxo-2-p-tolyl-ethyl)-quinolinium bromide] showed an EC50 [1, 4] of over 10 µM.
For CON=C(Cn1c(=O)ccc2ccccc21)c1ccc(C)cc1 [Compound 6, 1-(2-Methoxyimino-2-p-tolyl-ethyl)-1H-quinolin-2-one], the EC50 [1, 4] was over 10 µM.
In the case of Br.Cc1ccc(C(=O)Cn2c3c(sc2=N)CCCC3)cc1 [Compound 1, 2-(2-imino-4,5,6,7-tetrahydro-benzothiazol-3-yl)-1-p-tolyl-ethanone hydrobromide], the EC50 [1, 5] is given as 4.4 µM, the “apoptosis after γ-radiation” value [2] is given as “decreased in apoptosis” and the “mortality after γ-radiation” value [3] is given as “reduced mortality”.
